Consider 5 compounds from patent US20050246797A1, “Gene participating in the synthesis of brassinosteroid” (priority 2002, published 2005).

Read-outs that look alike come from different tables or passages of the source.

Data set [1] in a line: Concentrations of brassinosteroids in Arabidopsis strains by HPLC and GC-MS. The procedure:
The concentrations of brassinosteroids were determined in wild strains (Ws-2), the strain of reference example 1 (rot3-1 and rot3-5, suppressed function of ROT3) and the strain of reference example 3 (rot3/CYP90D1, suppressed function of ROT3 and CYP90D1) of Arabidoposis. The concentration was determined by harvesting the ground part of the plants at the time of rosette formation by reaping, by freezing and drying, and by detecting using HPLC and GC-MS.

The subject of data set [2] is strains of suppressed function of both ROT3 and CYP90D1. Description: Treatment of plants/leaves of the ROT3- and CYP90D1-suppressed strain with brassinosteroid intermediates or brassinolide (leaf morphology, FIG. 3). The format is in vivo, Arabidopsis. To be noted: aqueous solution 0.1 μM, submersion with gentle shaking. The procedure: The strain with suppressed function of both ROT3 and CYP90D1 prepared in reference example 2 was cultured from seeds in sterilized conditions. The seeds of the above-described strain were seeded on the MS medium (solidified by 0.2% Gelrite) supplemented with 2% (w/v) sucrose and were conventionally cultured at 23° C. under continuous illumination after seeding under sterilized conditions.
The above-described plants (strains of suppressed function of both ROT3 and CYP90D1) were cultured in the above-described aqueous solution at the level of submersion under the solution with gently shaking. In the case of the treatment of leaves with the above-described intermediates or brassionolide, leafstalks were cut out by a surgical knife after taking out the plants under sterilized conditions and were treated in the same way. […] Namely, ROT3 and CYP90D1 are cooperatively involved in the synthesis of brassinolide, the final product of the biosynthetic pathway of brassinosteriods.

The mark [3] stands for this setting: rot3/CYP90D1 (suppressed function of ROT3 and CYP90D1), ground part of plants at rosette formation.

Regarding `CC(C)[C@H](C)[C@@H](O)[C@H](O)[C@@H](C)[C@H]1CC[C@H]2[C@@H]3CC(=O)[C@H]4C[C@H](O)[C@H](O)C[C@]4(C)[C@H]3CC[C@]12C` [Castasterone], in data set [1] (setting [3]), the “concentration of brassinosteroid, rot3/CYP90D1” value (shortened to “concentration … rot3/CYP90D1”) is 0.020 ng/g.
Consider `CC(C)[C@H](C)[C@@H](O)[C@H](O)[C@@H](C)[C@H]1CC[C@H]2[C@@H]3CC[C@H]4C[C@H](O)[C@H](O)C[C@]4(C)[C@H]3CC[C@]12C` [6-Deoxocastasterone], for which the “concentration … rot3/CYP90D1” value in data set [1] is given as 0.034 ng/g.
As to `CC(C)[C@H](C)[C@@H](O)[C@H](O)[C@@H](C)C1CCC2C3OC(=O)[C@H]4C[C@H](O)[C@H](O)C[C@]4(C)C3CC[C@@]21C` (stereo partly shown) [Brassinolide], the “effect on leaf size/morphology of plants without the function of ROT3 and CYP90D1” value in data set [2] is given as “induced large size of leaves”. Besides, the “concentration … rot3/CYP90D1” value in data set [1] (setting [3]) is on record as “— (— in the table shows that the value is less than the limit of detection (0.001 ng/g))”. Also, the “amount in the strain with suppressed function of both ROT3 and CYP90D1” value in data set [1] (rot3/CYP90D1, in words) was “extremely decreased”.
For `CC(C)[C@H](C)[C@@H](O)[C@H](O)[C@@H](C)[C@H]1CC[C@H]2[C@@H]3CC[C@H]4C[C@@H](O)CC[C@]4(C)[C@H]3CC[C@]12C` [6-Deoxoteasterone], the “concentration … rot3/CYP90D1” value in data set [1] (setting [3]) is 0.26 ng/g.
For `CC(C)[C@H](C)[C@@H](O)[C@H](O)[C@@H](C)[C@H]1CC[C@H]2[C@@H]3CC[C@H]4C[C@H](O)CC[C@]4(C)[C@H]3CC[C@]12C` [3-Deoxotyphasterol], in data set [1] (setting [3]), the “concentration … rot3/CYP90D1” value was found to be 0.38 ng/g.
